Measurements reported in ChEMBL document CHEMBL5260833, “An overview of quinazolines: Pharmacological significance and recent developments” (Eur J Med Chem, 2018).

tested on: Rattus norvegicus; test: Antiinflammatory activity in carrageenan induced rat at assessed as reduction in paw edema 50 mg/kg, po relative to control; format: functional; parameters: scale not given: the % may be the effect or the level left

Row | SMILES | Activity
1 | COc1ccc(/C=C/C(=O)NNCc2nc3ccccc3c(=O)n2-c2ccccc2Cl)cc1 | 10.28%
2 | CC(C)c1ccc(/C=C/C(=O)NN2C(=O)CC2c2nc3ccc(Br)cc3c(=O)n2-c2cccc(Cl)c2)cc1 (stereo unspecified) | 10.28%
3 | O=C(/C=C/c1ccccc1)NNCc1nc2ccc(Br)cc2c(=O)n1-c1cccc(Cl)c1 | 10.28%
4 | CC(C)c1ccc(/C=C/C(=O)NN2C(=O)CC2c2nc3ccc(Br)cc3c(=O)n2-c2ccccc2)cc1 (stereo unspecified) | 10.28%
5 | O=c1c2ccccc2nc(CBr)n1-c1ccccc1Cl | 10.28%
6 | NNCc1nc2ccc(Br)cc2c(=O)n1-c1ccccc1 | 10.28%
7 | COc1cc(/C=C/C(=O)NN2C(=O)CC2c2nc3ccc(Br)cc3c(=O)n2-c2ccccc2)ccc1O (stereo unspecified) | 10.28%
8 | O=C(/C=C/c1ccccc1)NN1C(=O)CC1c1nc2ccc(Br)cc2c(=O)n1-c1ccccc1 (stereo unspecified) | 10.28%
9 | COc1ccc(/C=C/C(=O)NNCc2nc3ccc(Br)cc3c(=O)n2-c2ccccc2)cc1 | 10.28%
10 | NNCc1nc2ccccc2c(=O)n1-c1ccccc1Cl | 10.28%
11 | COc1ccccc1-n1c(CBr)nc2ccccc2c1=O | 10.28%
12 | CC(C)c1ccc(/C=C/C(=O)NNCc2nc3ccc(Br)cc3c(=O)n2-c2cccc(Cl)c2)cc1 | 10.28%
13 | COc1ccc(/C=C/C(=O)NN2C(=O)CC2c2nc3ccc(Br)cc3c(=O)n2-c2ccccc2)cc1 (stereo unspecified) | 10.28%
14 | COc1cc(/C=C/C(=O)NNCc2nc3ccc(Br)cc3c(=O)n2-c2cccc(Cl)c2)ccc1O | 10.28%
15 | NNCc1nc2ccc(Br)cc2c(=O)n1-c1cccc(Cl)c1 | 10.28%
16 | CC(C)c1ccc(/C=C/C(=O)NN2C(=O)CC2c2nc3ccccc3c(=O)n2-c2ccccc2Cl)cc1 (stereo unspecified) | 10.28%
17 | CC(=O)NNCc1nc2ccc(Br)cc2c(=O)n1-c1cccc(Cl)c1 | 10.28%
18 | CC(=O)NNCc1nc2ccc(Br)cc2c(=O)n1-c1ccccc1 | 10.28%

Row | SMILES | Activity
19 | COc1ccccc1-n1c(CNNC(=O)/C=C/c2ccc(C(C)C)cc2)nc2ccccc2c1=O | 10.28%
20 | COc1cc(/C=C/C(=O)NNCc2nc3ccccc3c(=O)n2-c2ccccc2OC)ccc1O | 10.28%
21 | COc1ccc(/C=C/C(=O)NN2C(=O)CC2c2nc3ccccc3c(=O)n2-c2ccccc2Cl)cc1 (stereo unspecified) | 10.28%
22 | COc1ccccc1-n1c(CNN)nc2ccccc2c1=O | 10.28%
23 | O=C(/C=C/c1ccccc1)NNCc1nc2ccc(Br)cc2c(=O)n1-c1ccccc1 | 10.28%
24 | CC(C)c1ccc(/C=C/C(=O)NNCc2nc3ccc(Br)cc3c(=O)n2-c2ccccc2)cc1 | 10.28%
25 | O=C(/C=C/c1ccccc1)NN1C(=O)CC1c1nc2ccc(Br)cc2c(=O)n1-c1cccc(Cl)c1 (stereo unspecified) | 10.28%
26 | O=C(/C=C/c1ccccc1)NN1C(=O)CC1c1nc2ccccc2c(=O)n1-c1ccccc1Cl (stereo unspecified) | 10.28%
27 | O=C(/C=C/c1ccccc1)NNCc1nc2ccccc2c(=O)n1-c1ccccc1Cl | 10.28%
28 | COc1ccccc1-n1c(C2CC(=O)N2NC(=O)/C=C/c2ccc(C(C)C)cc2)nc2ccccc2c1=O (stereo unspecified) | 10.28%
29 | COc1cc(/C=C/C(=O)NN2C(=O)CC2c2nc3ccccc3c(=O)n2-c2ccccc2OC)ccc1O (stereo unspecified) | 10.28%
30 | COc1cc(/C=C/C(=O)NNCc2nc3ccccc3c(=O)n2-c2ccccc2Cl)ccc1O | 10.28%
31 | CN(C)c1ccc(/C=C/C(=O)NNCc2nc3ccccc3c(=O)n2-c2ccccc2Cl)cc1 | 10.28%
32 | COc1cc(/C=C/C(=O)NNCc2nc3ccc(Br)cc3c(=O)n2-c2ccccc2)ccc1O | 10.28%
33 | COc1ccc(/C=C/C(=O)NN2C(=O)CC2c2nc3ccc(Br)cc3c(=O)n2-c2cccc(Cl)c2)cc1 (stereo unspecified) | 10.28%
34 | COc1ccccc1-n1c(CNNC(C)=O)nc2ccccc2c1=O | 10.28%
35 | CC(=O)NNCc1nc2ccccc2c(=O)n1-c1ccccc1Cl | 10.28%
36 | COc1ccc(/C=C/C(=O)NNCc2nc3ccc(Br)cc3c(=O)n2-c2cccc(Cl)c2)cc1 | 10.28%
